Several values for one entry are separate records, joined by “and”; a condition that tells them apart may be missing. Equal values may be shown once. Inconclusive results and toxic doses are left out.
Tested on: CD2F1 mice, intracerebral P388 leukemia, median survival T/C%
Experiment: NCI In Vivo Anticancer Drug Screen. Data for tumor model P388 Leukemia (intracerebral) in CD2F1 (CDF1) mice
Conditions: endpoint: median survival time, higher = longer survival
Procedure: The antitumor activity of compounds was measured in mice bearing transplantable tumors. Survival or tumor size were measured and the results are expressed as the measurement made in the treated group (T) divided by the measurement made in the vehicle treated control group (C). The tumor model used in this assay is P388 Leukemia (intracerebral) in CD2F1 (CDF1) mice

[1] = dose: 8.0 mg/kg/injection, schedule: Q01DX009 (ip), vehicle: saline with Tween-80
[2] = dose: 8.0 mg/kg/injection, schedule: Q01DX009 (ip), vehicle: saline
[3] = dose: 16.0 mg/kg/injection, schedule: Q01DX009 (ip), vehicle: saline with Tween-80
[4] = dose: 16.0 mg/kg/injection, schedule: Q01DX009 (ip), vehicle: saline
[5] = dose: 32.0 mg/kg/injection, schedule: Q01DX009 (ip), vehicle: saline with Tween-80
[6] = dose: 32.0 mg/kg/injection, schedule: Q01DX009 (ip), vehicle: saline
[7] = dose: 64.0 mg/kg/injection, schedule: Q01DX009 (ip), vehicle: saline with Tween-80
[8] = dose: 64.0 mg/kg/injection, schedule: Q01DX009 (ip), vehicle: saline
[9] = dose: 128.0 mg/kg/injection, schedule: Q01DX009 (ip), vehicle: saline with Tween-80
[10] = dose: 128.0 mg/kg/injection, schedule: Q01DX009 (ip), vehicle: saline
[11] = dose: 256.0 mg/kg/injection, schedule: Q01DX009 (ip), vehicle: saline with Tween-80
[12] = dose: 256.0 mg/kg/injection, schedule: Q01DX009 (ip), vehicle: saline
[13] = dose: 512.0 mg/kg/injection, schedule: Q01DX009 (ip), vehicle: saline with Tween-80
[14] = dose: 100.0 mg/kg/injection, schedule: Q01DX009 (ip), vehicle: Klucel (hydroxypropylcellulose) (HPC)
[15] = dose: 200.0 mg/kg/injection, schedule: Q01DX009 (ip), vehicle: saline

Compound: O=C1NC2(CCCCC2)C(=O)N1CCN(CCCl)CCCl
- T/C (dose: 1.25 mg/kg/injection, schedule: Q01DX005 (iv), vehicle: clinical formulation): 112 % of control
- T/C (dose: 1.25 mg/kg/injection, schedule: Q01DX009 (ip), vehicle: clinical formulation): 103 % of control
- T/C (dose: 1.25 mg/kg/injection, schedule: Q01DX009 (ip), vehicle: saline with Tween-80): 98 % of control
- T/C (dose: 1.5 mg/kg/injection, schedule: Q01DX009 (ip), vehicle: saline): 107 % of control
- T/C (dose: 2.5 mg/kg/injection, schedule: Q01DX005 (iv), vehicle: clinical formulation): 106 % of control
- T/C (dose: 2.5 mg/kg/injection, schedule: Q01DX009 (ip), vehicle: clinical formulation): 101 % of control
- T/C (dose: 2.5 mg/kg/injection, schedule: Q01DX009 (ip), vehicle: saline with Tween-80): 110 % of control
- T/C (dose: 5.0 mg/kg/injection, schedule: Q01DX005 (iv), vehicle: clinical formulation): 160 % of control
- T/C (dose: 5.0 mg/kg/injection, schedule: Q01DX009 (ip), vehicle: clinical formulation): 103 % of control
- T/C (dose: 5.0 mg/kg/injection, schedule: Q01DX009 (ip), vehicle: saline with Tween-80): 112 % of control
- T/C (dose: 6.0 mg/kg/injection, schedule: Q01DX009 (ip), vehicle: saline): 117 % of control
- T/C (dose: 10.0 mg/kg/injection, schedule: Q01DX009 (ip), vehicle: saline with Tween-80): 124 % of control
- T/C (dose: 20.0 mg/kg/injection, schedule: Q01DX009 (ip), vehicle: saline with Tween-80): 103 % of control

Compound: CC/C(=C(/CC)c1ccc(O)cc1)c1ccc(O)cc1
- T/C [1]: 105 % of control
- T/C [2]: 104 % of control
- T/C [3]: 106 % of control
- T/C [4]: 107 % of control
- T/C [5]: 107 % of control
- T/C [6]: 158 % of control
- T/C [7]: 100 % of control
- T/C [8]: 116 % of control
- T/C [9]: 115 % of control
- T/C [10]: 90 % of control
- T/C [11]: 106 % of control
- T/C [12]: 88 % of control
- T/C [13]: 86 % of control

Compound: CCN(C)N=Nc1ccc(C(N)=O)cc1
- T/C (dose: 25.0 mg/kg/injection, schedule: Q01DX009 (ip), vehicle: Klucel (hydroxypropylcellulose) (HPC)): 101 % of control
- T/C [14]: 154 % of control

Compound: CCCCCCCCCCCCCCCCCC(=O)N[C@@H](Cc1ccc(N(CCCl)CCCl)cc1)C(=O)NCCCCCC
- T/C (dose: 2.12 mg/kg/injection, schedule: Q03HX008 (ip), vehicle: saline): 105 % of control
- T/C (dose: 4.24 mg/kg/injection, schedule: Q03HX008 (ip), vehicle: saline): 105 % of control
- T/C (dose: 8.48 mg/kg/injection, schedule: Q03HX008 (ip), vehicle: saline): 105 % of control
- T/C (dose: 16.95 mg/kg/injection, schedule: Q03HX008 (ip), vehicle: saline): 94 % of control
- T/C (dose: 33.9 mg/kg/injection, schedule: Q03HX008 (ip), vehicle: saline): 105 % of control
- T/C (dose: 67.8 mg/kg/injection, schedule: Q03HX008 (ip), vehicle: saline): 110 % of control

Compound: CCC(=O)O[C@H]1CC[C@H]2[C@@H]3CCC4=CC(=O)CC[C@]4(C)[C@H]3CC[C@]12C
- T/C [1]: 105 % of control
- T/C [2]: 178 % of control
- T/C [3]: 108 % of control
- T/C [4]: 106 % of control
- T/C [5]: 105 % of control
- T/C [6]: 99 % of control
- T/C [7]: 117 % of control
- T/C [8]: 100 % of control
- T/C [9]: 100 % of control
- T/C [10]: 100 % of control
- T/C [11]: 107 % of control
- T/C [12]: 100 % of control
- T/C [13]: 106 % of control
- T/C (dose: 512.0 mg/kg/injection, schedule: Q01DX009 (ip), vehicle: saline): 109 % of control

Compound: COS(C)(=O)=O
- T/C (dose: 32.0 mg/kg/injection, schedule: Q01DX005 (ip), vehicle: saline): 107 % of control and 108 % of control
- T/C (dose: 64.0 mg/kg/injection, schedule: Q01DX005 (ip), vehicle: saline): 97 % of control and 106 % of control
- T/C (dose: 128.0 mg/kg/injection, schedule: Q01DX005 (ip), vehicle: saline): 104 % of control and 105 % of control

Compound: COc1cc(NCc2ccc3nc(N)nc(N)c3c2C)cc(OC)c1OC (tested in a mixture with another compound)
- T/C (dose: 7.5 mg/kg/injection, schedule: Q01DX009 (ip), vehicle: water): 100 % of control
- T/C (dose: 15.0 mg/kg/injection, schedule: Q01DX009 (ip), vehicle: water): 115 % of control
- T/C (dose: 30.0 mg/kg/injection, schedule: Q01DX009 (ip), vehicle: water): 117 % of control

Compound: CN(CO)c1nc(N(C)CO)nc(N(C)CO)n1
- T/C (dose: 3.12 mg/kg/injection, schedule: Q01DX009 (ip), vehicle: saline with Tween-80): 98 % of control
- T/C (dose: 6.25 mg/kg/injection, schedule: Q01DX009 (ip), vehicle: saline with Tween-80): 106 % of control
- T/C (dose: 12.5 mg/kg/injection, schedule: Q01DX009 (ip), vehicle: saline with Tween-80): 100 % of control and 101 % of control
- T/C (dose: 25.0 mg/kg/injection, schedule: Q01DX009 (ip), vehicle: saline with Tween-80): 116 % of control and 104 % of control
- T/C (dose: 50.0 mg/kg/injection, schedule: Q01DX009 (ip), vehicle: Klucel (hydroxypropylcellulose) (HPC)): 115 % of control and 93 % of control
- T/C (dose: 50.0 mg/kg/injection, schedule: Q01DX009 (ip), vehicle: saline with Tween-80): 103 % of control and 106 % of control
- T/C [14]: 121 % of control and 112 % of control

Compound: COc1ccc(CC2C(=O)NC(C)C(=O)N(C)C3C(=O)N(C)C(Cc4ccc(O)c(c4)Oc4ccc(cc4)C3O)C(=O)NC(C)C(=O)NC(C)C(=O)N2C)cc1 (stereo not given)
- T/C (dose: 0.12 mg/kg/injection, schedule: Q01DX009 (ip), vehicle: Klucel (hydroxypropylcellulose) (HPC)): 91 % of control and 98 % of control
- T/C (dose: 0.13 mg/kg/injection, schedule: Q01DX009 (ip), vehicle: saline): 104 % of control and 108 % of control
- T/C (dose: 0.25 mg/kg/injection, schedule: Q01DX009 (ip), vehicle: Klucel (hydroxypropylcellulose) (HPC)): 100 % of control and 103 % of control and 109 % of control
- T/C (dose: 0.25 mg/kg/injection, schedule: Q01DX009 (ip), vehicle: saline): 101 % of control and 109 % of control
- T/C (dose: 0.5 mg/kg/injection, schedule: Q01DX009 (ip), vehicle: Klucel (hydroxypropylcellulose) (HPC)): 100 % of control and 101 % of control and 106 % of control
- T/C (dose: 0.5 mg/kg/injection, schedule: Q01DX009 (ip), vehicle: saline): 104 % of control and 111 % of control
- T/C (dose: 1.0 mg/kg/injection, schedule: Q01DX009 (ip), vehicle: Klucel (hydroxypropylcellulose) (HPC)): 95 % of control and 101 % of control and 106 % of control
- T/C (dose: 1.0 mg/kg/injection, schedule: Q01DX009 (ip), vehicle: saline): 97 % of control and 103 % of control
- T/C (dose: 2.0 mg/kg/injection, schedule: Q01DX009 (ip), vehicle: Klucel (hydroxypropylcellulose) (HPC)): 89 % of control
- T/C (dose: 2.0 mg/kg/injection, schedule: Q01DX009 (ip), vehicle: saline): 109 % of control and 111 % of control

Compound: Cc1cn(C2CC(O)C(CO)O2)c(=O)[nH]c1=O (stereo not given)
- T/C (dose: 100.0 mg/kg/injection, schedule: Q01DX009 (ip), vehicle: saline with Tween-80): 98 % of control and 104 % of control
- T/C (dose: 100.0 mg/kg/injection, schedule: Q01DX009 (ip), vehicle: saline): 93 % of control and 102 % of control
- T/C (dose: 200.0 mg/kg/injection, schedule: Q01DX009 (ip), vehicle: saline with Tween-80): 108 % of control and 109 % of control
- T/C [15]: 97 % of control and 109 % of control
- T/C (dose: 400.0 mg/kg/injection, schedule: Q01DX009 (ip), vehicle: saline with Tween-80): 101 % of control and 109 % of control
- T/C (dose: 400.0 mg/kg/injection, schedule: Q01DX009 (ip), vehicle: saline): 94 % of control and 111 % of control
- T/C (dose: 800.0 mg/kg/injection, schedule: Q01DX009 (ip), vehicle: saline with Tween-80): 114 % of control and 111 % of control
- T/C (dose: 800.0 mg/kg/injection, schedule: Q01DX009 (ip), vehicle: saline): 104 % of control and 105 % of control
- T/C (dose: 1600.0 mg/kg/injection, schedule: Q01DX009 (ip), vehicle: saline with Tween-80): 93 % of control and 101 % of control

Compound: CO[C@H]1C[C@@H]2CC[C@@H](C)[C@@](O)(O2)C(=O)C(=O)N2CCCC[C@H]2C(=O)O[C@H]([C@H](C)C[C@@H]2CC[C@@H](O)[C@H](OC)C2)CC(=O)[C@H](C)C=C(C)[C@@H](O)[C@@H](OC)C(=O)[C@H](C)C[C@H](C)/C=C/C=C/C=C1C
- T/C (dose: 400.0 mg/kg/injection, schedule: Q01DX009 (ip), vehicle: gum acacia): 107 % of control

Compound: Nc1nc(F)nc2c1ncn2C1OC(COP(=O)(O)O)C(O)C1O (stereo not given)
- T/C (dose: 60.0 mg/kg/injection, schedule: Q01DX009 (ip), vehicle: saline): 102 % of control
- T/C (dose: 90.0 mg/kg/injection, schedule: Q01DX009 (ip), vehicle: saline): 111 % of control
- T/C (dose: 134.0 mg/kg/injection, schedule: Q01DX009 (ip), vehicle: saline): 119 % of control
- T/C [15]: 205 % of control

Reference: PubChem BioAssay AID334 (DTP/NCI, 2004)
